We go through one compound from paper PMC9573696, “Experimental Examination of Solubility and Lipophilicity as Pharmaceutically Relevant Points of Novel Bioactive Hybrid Compounds” (Molecules, 2022).

Common to all, as to assay: In vitro antifungal activity, microbroth dilution (MIC)
Common to all, as to assay type: cell-based
Background: Dilution methods test growth across graded concentrations, often in twofold steps.

Experiment [1] relates to C. parapsilosis ATCC 22019. Particulars: Lodderomyces parapsilosis, ATCC22019; C. parapsilosis ATCC 22019; 35 °C, 24 h; read-out: MIC. As to the method:
(§1) The in vitro antifungal screening results of synthesized compounds was evaluated against three fungal strains: C. parapsilosis ATCC 22019, C. utilis 84, and C. glabrata 61L are summarized in Table 1.
(§2) The in vitro antifungal activity of the target compounds was measured by means of the minimal inhibitory concentrations (MIC) with fluconazole as the control drug. Procedure was carried out by the microbroth dilution method in 96-well plates according to the recommendations of the Clinical and Laboratory Standards Institute. The detailed information was reported previously. The investigated pathogenic species included C. parapsilosis ATCC 22019, C. utilis 84 and C. glabrata 61. The sensitivity was evaluated visually, after the incubation at 35 °C for 24 h and the value was compared with the growth density in the reference culture without the sample. Each test was conducted in triplicate.

For the next experiment, the system named is C. utilis 84. Particulars: Williopsis jadinii; C. utilis 84; 35 °C, 24 h; read-out: MIC. As to the method:
as §1, §2

The next experiment deals with C. glabrata 61L. Particulars: Nakaseomyces glabratus; C. glabrata 61L; 35 °C, 24 h; read-out: MIC. As for the experimental part:
as §1, §2

In brackets after ≈: the same amount, converted by molar mass.

As to `OC(Cn1cncn1)(Cn1cncn1)c1ccc(F)cc1F` [Fluconazole, reference compound], the results for the MIC (in experiment [1]; in the experiment on C. utilis 84; in the experiment with C. glabrata 61L) were 2 µg/mL (≈ 6.53 µM), 2 µg/mL (≈ 6.53 µM) and 8 µg/mL (≈ 26.1 µM), respectively.

One may read the MIC as the lowest concentration found to suppress growth.
